# Legend:
# Type in all cases: in vivo
# Stellaria [1] = assay: Example B4: post-emergence action, 250 g/ha; conditions: 250 g of AS/ha, sprayed in the 2-3-leaf stage, 0.2% X77, 3 weeks, nine-level scale 1=complete damage, 9=no effect
# Description: (§1) Monocotyledonous and dicotyledonous test plants are sown in pots in standard soil. In the 2-3- leaf stage of the test plants, the test substances are sprayed on (500 l of spray liquor/ha) as an aqueous suspension, prepared from a wettable powder WP10 according to the desired dosage (250 g of a.i./ha). 0.2% of X77 is added as wetting agent to the spray liquor. The test plants are then grown under optimum conditions in a greenhouse.
# (§2) After a test period of 3 weeks, the test is evaluated with a nine4evel scale of ratings (1=complete damage, 9=no effect). Ratings of 1 to 4 (in particular 1 to 3) mean good to very good herbicidal action, 7-9 mean good tolerance.
# Amaranthus [2] = assay: Example B4: post-emergence action, 250 g/ha; conditions: 250 g of AS/ha, sprayed in the 2-3-leaf stage, 0.2% X77, 3 weeks, nine-level scale 1=complete damage, 9=no effect
# Description: as §1, §2
# Chenopodium [3] = assay: Example B4: post-emergence action, 250 g/ha; conditions: 250 g of AS/ha, sprayed in the 2-3-leaf stage, 0.2% X77, 3 weeks, nine-level scale 1=complete damage, 9=no effect
# Description: as §1, §2
# Kochia [4] = assay: Example B4: post-emergence action, 250 g/ha; conditions: 250 g of AS/ha, sprayed in the 2-3-leaf stage, 0.2% X77, 3 weeks, nine-level scale 1=complete damage, 9=no effect
# Description: as §1, §2
# Sida [5] = assay: Example B4: post-emergence action, 250 g/ha; conditions: 250 g of AS/ha, sprayed in the 2-3-leaf stage, 0.2% X77, 3 weeks, nine-level scale 1=complete damage, 9=no effect
# Description: as §1, §2
# Abutilon [6] = assay: Example B4: post-emergence action, 250 g/ha; conditions: 250 g of AS/ha, sprayed in the 2-3-leaf stage, 0.2% X77, 3 weeks, nine-level scale 1=complete damage, 9=no effect
# Description: as §1, §2
# Stellaria [7] = assay: Example B3: pre-emergence action, 250 g/ha; conditions: 250 g of AS/ha, sprayed immediately after sowing, 3 weeks, nine-level scale 1=complete damage, 9=no effect
# Description: (§3) Monocotyledonous and dicotyledonous test plants are sown in pots in standard soil. Immediately after sowing, the test substances are sprayed on (500 l of spray liquorlha) as an aqueous suspension, prepared from a wettable powder WP10 corresponding to the desired dosage (250 g of a.i./ha).
# as §2, with “The test plants are then grown under optimum conditions in a greenhouse. After” for “After”, “nine -evel” for “nine4evel”
# Amaranthus [8] = assay: Example B3: pre-emergence action, 250 g/ha; conditions: 250 g of AS/ha, sprayed immediately after sowing, 3 weeks, nine-level scale 1=complete damage, 9=no effect
# Description: as §3
# as §2, with “The test plants are then grown under optimum conditions in a greenhouse. After” for “After”, “nine -evel” for “nine4evel”
# Chenopodium [9] = assay: Example B3: pre-emergence action, 250 g/ha; conditions: 250 g of AS/ha, sprayed immediately after sowing, 3 weeks, nine-level scale 1=complete damage, 9=no effect
# Description: as §3
# as §2, with “The test plants are then grown under optimum conditions in a greenhouse. After” for “After”, “nine -evel” for “nine4evel”
# Kochia [10] = assay: Example B3: pre-emergence action, 250 g/ha; conditions: 250 g of AS/ha, sprayed immediately after sowing, 3 weeks, nine-level scale 1=complete damage, 9=no effect
# Description: as §3
# as §2, with “The test plants are then grown under optimum conditions in a greenhouse. After” for “After”, “nine -evel” for “nine4evel”
# Sida [11] = assay: Example B3: pre-emergence action, 250 g/ha; conditions: 250 g of AS/ha, sprayed immediately after sowing, 3 weeks, nine-level scale 1=complete damage, 9=no effect
# Description: as §3
# as §2, with “The test plants are then grown under optimum conditions in a greenhouse. After” for “After”, “nine -evel” for “nine4evel”
# Abutilon [12] = assay: Example B3: pre-emergence action, 250 g/ha; conditions: 250 g of AS/ha, sprayed immediately after sowing, 3 weeks, nine-level scale 1=complete damage, 9=no effect
# Description: as §3
# as §2, with “The test plants are then grown under optimum conditions in a greenhouse. After” for “After”, “nine -evel” for “nine4evel”
SMILES,Post-emergence action: Stellaria (rating) (Stellaria [1]),Post-emergence action: Amaranthus (rating) (Amaranthus [2]),Post-emergence action: Chenopodium (rating) (Chenopodium [3]),Post-emergence action: Kochia (rating) (Kochia [4]),Post-emergence action: Sida (rating) (Sida [5]),Post-emergence action: Abutilon (rating) (Abutilon [6]),Pre-emergence action: Stellaria (rating) (Stellaria [7]),Pre-emergence action: Amaranthus (rating) (Amaranthus [8]),Pre-emergence action: Chenopodium (rating) (Chenopodium [9]),Pre-emergence action: Kochia (rating) (Kochia [10]),Pre-emergence action: Sida (rating) (Sida [11]),Pre-emergence action: Abutilon (rating) (Abutilon [12])
O=C(C1=C(O)C2CCC(C2)C1=O)c1ccc(Cl)nc1C(F)(F)F (stereo not drawn) [Compound 1.355],3,2,2,3,2,2,2,1,1,1,2,1
COc1ccc(C(=O)C2=C(O)C3CCC(C3)C2=O)c(C(F)(F)F)n1 (stereo not drawn) [Compound 1.347],3,2,2,2,3,3,1,2,1,1,4,2
CCSc1ccc(C(=O)C2=C(O)C3CCC(C3)C2=O)c(C(F)(F)F)n1 (stereo not drawn) [Compound 1.341],4,2,3,4,5,5,1,9,1,9,4,3
O=C(C1=C(O)C2CCC(C2)C1=O)c1ccc(OCC(F)(F)F)nc1C(F)(F)F (stereo not drawn) [Compound 1.349],3,2,2,2,2,2,5,3,1,4,2,1
CSc1ccc(C(=O)C2=C(O)C3CCC(C3)C2=O)c(C(F)(F)F)n1 (stereo not drawn) [Compound 1.335],3,2,2,2,2,3,7,2,1,5,2,1
CS(=O)(=O)c1ccc(C(=O)C2=C(O)C3CCC(C3)C2=O)c(C(F)(F)F)n1 (stereo not drawn) [Compound 1.339],3,2,3,1,4,2,1,1,1,7,2,2

# Source: patent publication US6498125B2, “Pyridine ketones useful as herbicides” (Syngenta Participations AG, priority 1998, dated 2002)
